Reference: patent publication US6326363A, “Methylenebisphosphonic acid derivatives” (Leiras Oy, priority 1997, dated 2001)
Structures can show the parent of a compound that is named as a salt. Where two headings read alike, the source gives them in different places.

Key:
[1] = test system: PTH-induced bone resorption in mouse calvaria; test: Inhibition of PTH-induced bone resorption in mouse calvaria in vitro; type: cell-based; conditions: 72 h, 100 μmol/l, PTH 10 nM, cultured for three days, read-out: Inhibition of resorption 100 (PTH-x)/PTH
Method: Newborn mice were labeled by a subcutaneous injection of ^45 Ca four days prior to sacrifice. Calvarial bone fragments were microdissected from the parietal bones, preincubated in culture medium with indomethacin, washed and then cultured for three days with and without a bisphosphonate prodrug. Bone resorption was stimulated by parathyroid hormone (PTH, 10 nM), and the effect on this stimulated resorption was measured. As presented in Table 4, an inhibition of resorption by the compounds was shown. The inhibition by the bisphosphonate prodrugs was even higher than with the parent drug.

[2] = Water-solubility in phosphate buffer (50 mM, pH 7.4), HPLC; type: physicochemical; conditions: for solubility at 2 h: 50 mm phosphate buffer, aqueous buffer
Method: Clodronate and the prodrug molecules of clodronate were analysed with reverse phase/ion pair HPLC method (an isocratic program for clodronate; a gradient program for the simultaneous analysis of clodronate and a prodrug molecule), where detection of compounds was based on the measurement of light scattering caused by unevaporated compounds.
Equipment: Merck LaChrom HPLC (Merck Hitachi Ltd., Japan) Kromasil 100 RP-C8 (250×4.6 i.d., 5 μm) (Higgins Analytical Inc., USA)
Isocratic programe: methanol/ammoniumacetate buffer (3:97, pH 4.6), which contained 2.25% butylamine as ion pair reagent, flow 1.2 ml/min.
Gradient program: methanol (3%→40-60% during 1 min-6 min)/ammoniumacetate (pH 4.6), which contained 2.25% butylamine as ion pair reagent, flow 1.2 ml/min.
Detector: Sedex 55 light scattering detector (Sedere, France)
Settings: temperature of detector 70° C., pressure of evaporating gas (filtered air) 2.2 bar.
Water-solubilities of prodrug molecules were determined in phosphate buffer (50 mM, pH 7.4) at room temperature.
An excess of the compound to be tested was dissolved in about 5 ml of phosphate buffer. The suspension was stirred for 2 hours, the suspension was filtered, and the prodrug concentration of the filtrate was determined with HPLC. Water-solubility of clodronate was determined with the same method.

[3] = Distribution coefficient octanol/buffer (log P); type: physicochemical; conditions: 1-octanol/buffer
Method: The fat-solubility of the compounds of the test was studied by determining the distribution coefficients (P) of the compounds at pH 7.4 and 2.0. The analysis were carried out in a mixture of octanol and buffer.
When the octanol/buffer method of analysis was used, 1-octanol and the phosphate buffer used (50 mM, pH 7.40, μ=0.15) were saturated with each other by stirring a mixture of these overnight. Phases were separated and a prodrug standard solution with the desired concentration was made in the buffer phase. Appropriate volumes of 1-octanol and the standard solution of phosphate buffer were mixed and the mixture was shaken vigorously for 60 min. After shaking the phases were separated and the concentration of the compound to be studied was analysed from the buffer phase before and after distribution according to the above described HPLC method. Distribution coefficient P was calculated from the following formula: [formula]
C1 =concentration of the compound to be studied before distribution
Ca =concentration of the compound to be studied after distribution
Va =volume of the buffer phase
Vo =volume of the octanol phase

[4] = Chemical hydrolysis of prodrug molecules in phosphate buffer at 37° C.; type: physicochemical; conditions: phosphate buffer 50 mM; for half-life: 50 mm phosphate buffer
Method: Chemical hydrolysis of prodrug molecules was analysed in phosphate buffer (50 mM, μ=0.15) at pH 2.0 and 7.4 and at 37° C.
The compound to be studied was dissolved in 10.0 ml of phosphate buffer. The solution was stirred for 24-1000 h in a water bath with a magnetic stirrer, and samples were taken at regular intervals and analysed with HPLC. From the results a graph of pseudo I order was drawn, where the amount of the remaining compound was shown as a function of time. From the slope (kk) of the linear graph so obtained, a dissociation constant k (k=2.303×-kk) was calculated, wherefrom the half-life T1/2 (T1/2 =0.693/k) of the prodrug molecule under the circumstances in question was calculated.

[5] = Enzymatic hydrolysis of prodrug molecules in 80% plasma at pH 7.40 and 37° C.; type: in vitro ADME; conditions: pH 7.4, 37° C.; for metabolised at 1 min: 1 minute, mean ± SE, n = 3, read-out: clodronate released in the first sample (1 minute)
Method: The enzyme hydrolysis rate of prodrug molecules was determined in a plasma/buffer mixture (80%-20%) at pH 7.40 and at 37° C.
The compound to be tested was dissolved in the buffer part and, after dissolution, plasma with a temperature of 37° C. was added. The solution was stirred with a magnetic stirrer and a sample of 0.25 ml was taken from the mixture at intervals of 1-360 min (depending on the molecule to be tested), to which sample 0.25 ml methanol (denatures proteins) was added. The sample was centrifuged, the clear supernatant was evaporated to dryness, the residue was dissolved in the eluent of the HPLC method, and the remaining prodrug concentration and the amount of the clodronate formed were analysed with HPLC. From the concentrations obtained a first-order graph was drawn (the remaining prodrug amount as a function of time), wherefrom a dissociation constant and half-life (T1/2) were determined.

[6] = Absorption and hydrolysis in vivo, oral bioavailability in fasted rats; conditions: rat, 100 umol/kg, urine 72 hours, compared with intravenous, parent drug analyzed
Method: Absorption and hydrolysis of the compounds in vivo was studied in fasted rats. Absorption was determined from the total amount excreted into urine during 72 hours after administration. For the determination of oral bioavailability excreted amount after oral administration was compared with that after intravenous administration. The urine samples were analyzed for the parent drug with mass-selective or nitrogen phosphorous-detection gas chromatography. The results presented in Table 5 show increased bioavailability of the bisphosphonate prodrugs compared with that of the parent compound.

[7] = phosphate buffer 50 mM, pH 7.4, room temperature
[8] = pH 2.0, read-out: Log P (pH 2.0)
[9] = 1-octanol/phosphate buffer, pH 7.4, read-out: Log P (pH 7.4)
[10] = μ=0.15, pH 2.0, 37° C., read-out: T1/2 pH 2.0 (converted)
[11] = μ=0.15, pH 7.4, 37° C., read-out: T1/2 pH 7.4 (converted)

Compound | inhibition at 100 µM [1] | solubility at 2 h [2, 7] | logD [3, 8] | logD [3, 9] | half-life [4, 10] | metabolised at 1 min [5] | other results
CC(C)C(=O)OP(=O)(O)C(Cl)(Cl)P(=O)(O)OC(=O)C(C)C [Compound 2, P,P-di(isobutyroyl)(dichloromethylene)bisphosphonate disodium salt] | 64.8% |  |  |  |  |  | 
CC(=O)OP(=O)(O)C(Cl)(Cl)P(=O)(O)OC(C)=O [Compound 1, P,P'-Diacetyl(dichloromethylene)bisphosphonate disodium salt] | 48.7% | 190 mg/mL | -1.4 | -2.2 | 0.7 h | 102 ± 1.2% | T1/2 pH 7.4 ([4]; μ=0.15, pH 7.4, 37° C.): 15.2 h
CCCCCCCCCCCCCCCCCC(=O)OP(=O)(O)C(Cl)(Cl)P(=O)(O)OC(=O)CCCCCCCCCCCCCCCCC [Compound 4, P,P'-di(octadecanoyl)(dichloromethylene)bisphosphonate disodium salt] | 53.9% |  |  |  |  |  | 
O=P([O-])([O-])C(Cl)(Cl)P(=O)(O)O.[Na+].[Na+] [Clodronate, dichloromethylenebisphosphonic acid disodium salt, reference compound] | 43.2% | 397 mg/mL |  |  |  |  | Water-solubility (in words) ([2]; reason why the distribution coefficient cannot be determined): extremely water-soluble; bioavailability at 72 h [6]: 2.17%
CCCCCCCCCCCCCC(=O)OP(=O)(O)C(Cl)(Cl)P(=O)(O)OC(=O)CCCCCCCCCCCCC [Compound 3, P,P'-di(tetradecanoyl)(dichoromethylene)bisphosphonate disodium salt] | 50.5% |  |  |  |  |  | 
O=C(OP(=O)(O)C(Cl)(Cl)P(=O)(O)OC(=O)c1ccccc1)c1ccccc1 [Benzoe acid dianhydride (Ex. 7), P,P'-Di(benzoyl)(dichloromethylene)bisphosphonate disodium salt] |  | 6 mg/mL | -1.5 | -2.4 | 286 h | 91.4 ± 8.6% | half-life [4, 11]: 235 h
CC(C)(C)C(=O)OP(=O)(O)C(Cl)(Cl)P(=O)(O)OC(=O)C(C)(C)C [Pivalyl acid dianhydride (Ex. 7), P,P'-Di(pivaloyl)(dichloromethylene)bisphosphonate disodium salt] |  |  | -2 | -2.3 |  |  | Water-solubility ([2]; phosphate buffer 50 mM, pH 7.4, room temperature, 120 min): 23,5 mg/ml; half-life [4, 11]: 790 h; T1/2 pH 2.0 ([4]; μ=0.15, pH 2.0, 37° C.): 8.6 h; T1/2 Plasma [5]: 3.3 ± 0.6 h
CCCC(=O)OP(=O)(O)C(Cl)(Cl)P(=O)(O)OC(=O)CCC [Butanoic acid dianhydride (Ex. 7), P,P'-Dibutyroyl(dichloromethylene)bisphosphonate disodium salt] |  | 172 mg/mL | -1.9 | -2.4 | 0.8 h | 98 ± 6.9% | T1/2 pH 7.4 ([4]; μ=0.15, pH 7.4, 37° C.): 31.3 h
